PubChem BioAssay AID248 (DTP/NCI, 2004)
Several values for one entry are separate records, joined by “and”; a condition that tells them apart may be missing. Equal values may be shown once. Inconclusive results and toxic doses are left out.

Test system: L1210 leukemia ip in BDF1 mice, survival T/C
Assay: NCI In Vivo Anticancer Drug Screen. Data for tumor model L1210 Leukemia (intraperitoneal) in B6D2F1 (BDF1) mice
Conditions: endpoint: mean survival time, higher = longer survival
Method in brief: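 Each compound was tested against a transplantable tumor grown in mice. The endpoint was survival, with treated animals benchmarked against vehicle controls as a simple ratio.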

[1] = dose: 100.0 mg/kg/injection, schedule: Q01DX001 (ip), vehicle: carboxymethylcellulose (CMC)
[2] = dose: 100.0 mg/kg/injection, schedule: Q01DX009 (ip), vehicle: saline with Tween-80
[3] = dose: 200.0 mg/kg/injection, schedule: Q01DX001 (ip), vehicle: carboxymethylcellulose (CMC)
[4] = dose: 200.0 mg/kg/injection, schedule: Q01DX009 (ip), vehicle: saline with Tween-80
[5] = dose: 400.0 mg/kg/injection, schedule: Q01DX001 (ip), vehicle: carboxymethylcellulose (CMC)
[6] = dose: 100.0 mg/kg/injection, schedule: Q04DX003 (ip), vehicle: saline with Tween-80
[7] = dose: 200.0 mg/kg/injection, schedule: Q04DX003 (ip), vehicle: saline with Tween-80
[8] = dose: 50.0 mg/kg/injection, schedule: Q04DX002 (ip), vehicle: Klucel (hydroxypropylcellulose) (HPC)
[9] = dose: 100.0 mg/kg/injection, schedule: Q04DX002 (ip), vehicle: Klucel (hydroxypropylcellulose) (HPC)
[10] = dose: 200.0 mg/kg/injection, schedule: Q04DX002 (ip), vehicle: Klucel (hydroxypropylcellulose) (HPC)
[11] = dose: 50.0 mg/kg/injection, schedule: Q01DX001 (ip), vehicle: saline
[12] = dose: 100.0 mg/kg/injection, schedule: Q01DX001 (ip), vehicle: saline
[13] = dose: 200.0 mg/kg/injection, schedule: Q01DX001 (ip), vehicle: saline
[14] = dose: 400.0 mg/kg/injection, schedule: Q01DX001 (ip), vehicle: saline
[15] = dose: 25.0 mg/kg/injection, schedule: Q01DX009 (ip), vehicle: water

C/C(=N\Nc1nc2ccccc2s1)c1ccncc1 was tested, and the T/C (dose: 50.0 mg/kg/injection, schedule: Q01DX009 (ip), vehicle: Klucel (hydroxypropylcellulose) (HPC)) was 101 % of control, the T/C (dose: 100.0 mg/kg/injection, schedule: Q01DX009 (ip), vehicle: Klucel (hydroxypropylcellulose) (HPC)) was 100 % of control and the T/C (dose: 200.0 mg/kg/injection, schedule: Q01DX009 (ip), vehicle: Klucel (hydroxypropylcellulose) (HPC)) was 107 % of control. For the same compound, the T/C (dose: 400.0 mg/kg/injection, schedule: Q01DX009 (ip), vehicle: Klucel (hydroxypropylcellulose) (HPC)) was 101 % of control.
With CCCCCCCCCCCCCCCCSSCCCCCCCCCCCCCCCC the T/C [1] was 93 % of control, the T/C [2] was 92 % of control and the T/C [3] was 95 % of control. For the same compound, the T/C [4] was 95 % of control, the T/C [5] was 95 % of control and the T/C (dose: 400.0 mg/kg/injection, schedule: Q01DX009 (ip), vehicle: saline with Tween-80) was 87 % of control.
In the case of CCOC(=O)Nc1cc(NC(=O)OCC)cc([N+](=O)[O-])c1, the T/C [6] is reported as 110 % of control, the T/C [7] is reported as 102 % of control and the T/C (dose: 400.0 mg/kg/injection, schedule: Q04DX003 (ip), vehicle: saline with Tween-80) is reported as 89 % of control.
With O=C(O)c1cccc(N2C(=O)CSC2=S)c1 the T/C (dose: 25.0 mg/kg/injection, schedule: Q04DX002 (ip), vehicle: Klucel (hydroxypropylcellulose) (HPC)) was 94 % of control, the T/C [8] was 93 % of control and 91 % of control and the T/C [9] was 93 % of control and 102 % of control. The T/C [10] was 88 % of control.
In the case of CCC(CC)NCCOC(=O)c1ccc(N)cc1, the T/C (dose: 75.0 mg/kg/injection, schedule: Q01DX001 (ip), vehicle: saline) is reported as 100 % of control and the T/C (dose: 150.0 mg/kg/injection, schedule: Q01DX001 (ip), vehicle: saline) is reported as 98 % of control.
With C=CCOc1ccc(C=O)cc1OCC=C the T/C (dose: 100.0 mg/kg/injection, schedule: Q04DX003 (ip), vehicle: Klucel (hydroxypropylcellulose) (HPC)) was 101 % of control, the T/C (dose: 200.0 mg/kg/injection, schedule: Q04DX003 (ip), vehicle: Klucel (hydroxypropylcellulose) (HPC)) was 96 % of control and the T/C (dose: 400.0 mg/kg/injection, schedule: Q04DX003 (ip), vehicle: Klucel (hydroxypropylcellulose) (HPC)) was 101 % of control.
Nc1c(Cl)ncnc1Nc1cccc(C(=O)O)c1 was tested, and the T/C [11] was 98 % of control, the T/C [12] was 108 % of control and the T/C [13] was 102 % of control. The T/C [14] was 93 % of control.
For C1=Cc2ccccc2Sc2ccccc21, the T/C (dose: 50.0 mg/kg/injection, schedule: Q01DX001 (ip), vehicle: carboxymethylcellulose (CMC)) was 98 % of control and the T/C [3] was 98 % of control.
CN(C)CCCN1CC2C3CCCCC3=C3CCCCC3C2C1 (stereo not drawn) was tested, and the T/C [11] was 98 % of control.
In the case of O=C(O)/C=C/c1cnccn1, the T/C (dose: 100.0 mg/kg/injection, schedule: Q04DX003 (ip), vehicle: carboxymethylcellulose (CMC)) is reported as 103 % of control, the T/C (dose: 200.0 mg/kg/injection, schedule: Q04DX003 (ip), vehicle: carboxymethylcellulose (CMC)) is reported as 93 % of control and the T/C (dose: 400.0 mg/kg/injection, schedule: Q04DX003 (ip), vehicle: carboxymethylcellulose (CMC)) is reported as 97 % of control.
With Cc1ccc2c(c1)C(c1ccccc1)(c1ccccc1)N(c1ccccc1)S2(=O)=O the T/C [1] was 94 % of control, the T/C [3] was 91 % of control and the T/C [5] was 100 % of control.
In the case of COc1ccc(C(N)=S)c2ccccc12, the T/C (dose: 100.0 mg/kg/injection, schedule: Q01DX001 (ip), vehicle: Klucel (hydroxypropylcellulose) (HPC)) is reported as 105 % of control, the T/C (dose: 200.0 mg/kg/injection, schedule: Q01DX001 (ip), vehicle: Klucel (hydroxypropylcellulose) (HPC)) is reported as 102 % of control and the T/C (dose: 400.0 mg/kg/injection, schedule: Q01DX001 (ip), vehicle: Klucel (hydroxypropylcellulose) (HPC)) is reported as 102 % of control.
In the case of O=C(Nc1cccc2c(NC(=O)c3ccccc3)cccc12)c1ccccc1, the T/C (dose: 100.0 mg/kg/injection, schedule: Q01DX001 (ip), vehicle: saline with Tween-80) is reported as 92 % of control, the T/C (dose: 200.0 mg/kg/injection, schedule: Q01DX001 (ip), vehicle: saline with Tween-80) is reported as 91 % of control and the T/C (dose: 400.0 mg/kg/injection, schedule: Q01DX001 (ip), vehicle: saline with Tween-80) is reported as 89 % of control.
With COC1=C(O)C(C(O)CO)OC1=O (stereo not drawn) the T/C [15] was 103 % of control, the T/C (dose: 50.0 mg/kg/injection, schedule: Q01DX009 (ip), vehicle: water) was 110 % of control and the T/C (dose: 100.0 mg/kg/injection, schedule: Q01DX009 (ip), vehicle: water) was 117 % of control. The T/C (dose: 200.0 mg/kg/injection, schedule: Q01DX009 (ip), vehicle: water) was 101 % of control and the T/C (dose: 400.0 mg/kg/injection, schedule: Q01DX009 (ip), vehicle: water) was 108 % of control.
CC(=O)C(CCC#N)(CCC#N)C(C)=O was tested, and the T/C [8] was 101 % of control, the T/C [9] was 95 % of control and 105 % of control and the T/C [10] was 100 % of control. For the same compound, the T/C (dose: 400.0 mg/kg/injection, schedule: Q04DX002 (ip), vehicle: Klucel (hydroxypropylcellulose) (HPC)) was 97 % of control and 86 % of control.
In the case of COc1cc([N+](=O)[O-])ccc1NC(=O)c1ccccc1, the T/C [1] is reported as 99 % of control, the T/C [3] is reported as 101 % of control and the T/C [5] is reported as 97 % of control.
With CS(=O)(=O)OCC1(Br)CC1(c1ccccc1)c1ccccc1 (stereo not drawn) the T/C (dose: 100.0 mg/kg/injection, schedule: Q01DX001 (ip), vehicle: other) was 95 % of control, the T/C (dose: 200.0 mg/kg/injection, schedule: Q01DX001 (ip), vehicle: other) was 95 % of control and the T/C (dose: 400.0 mg/kg/injection, schedule: Q01DX001 (ip), vehicle: other) was 90 % of control.
With O=C(O)C(CSC(c1ccccc1)(c1ccccc1)c1ccccc1)N=Cc1cccs1 (stereo not drawn) the T/C (dose: 22.0 mg/kg/injection, schedule: Q01DX009 (ip), vehicle: saline) was 123 % of control, the T/C (dose: 66.0 mg/kg/injection, schedule: Q01DX009 (ip), vehicle: saline with Tween-80) was 109 % of control and the T/C (dose: 66.0 mg/kg/injection, schedule: Q01DX009 (ip), vehicle: saline) was 152 % of control and 214 % of control. The T/C (dose: 150.0 mg/kg/injection, schedule: Q01DX009 (ip), vehicle: saline with Tween-80) was 98 % of control and the T/C (dose: 150.0 mg/kg/injection, schedule: Q01DX009 (ip), vehicle: saline) was 104 % of control.
O=C(O)c1c(Cl)cccc1[N+](=O)[O-] was tested, and the T/C [12] was 100 % of control, the T/C [13] was 96 % of control and the T/C [14] was 102 % of control.
With CCCCCC/C=N\N=C(N)N the T/C (dose: 15.0 mg/kg/injection, schedule: Q01DX Z (ip), vehicle: saline) was 97 % of control, the T/C (dose: 30.0 mg/kg/injection, schedule: Q01DX Z (ip), vehicle: saline) was 97 % of control and the T/C (dose: 60.0 mg/kg/injection, schedule: Q01DX Z (ip), vehicle: saline) was 102 % of control. For the same compound, the T/C (dose: 60.0 mg/kg/injection, schedule: Q01DX Z (oral), vehicle: saline) was 100 % of control, the T/C (dose: 120.0 mg/kg/injection, schedule: Q01DX Z (ip), vehicle: saline) was 88 % of control and the T/C (dose: 120.0 mg/kg/injection, schedule: Q01DX Z (oral), vehicle: saline) was 98 % of control. The T/C (dose: 240.0 mg/kg/injection, schedule: Q01DX Z (oral), vehicle: saline) was 91 % of control and the T/C (dose: 480.0 mg/kg/injection, schedule: Q01DX Z (oral), vehicle: saline) was 98 % of control.
O=C(O)Cc1ccc2c3c(ccc([N+](=O)[O-])c13)CC2 was tested, and the T/C (dose: 50.0 mg/kg/injection, schedule: Q01DX009 (ip), vehicle: saline with Tween-80) was 95 % of control, the T/C [2] was 93 % of control and the T/C [6] was 96 % of control. The T/C [4] was 90 % of control and the T/C [7] was 96 % of control.
C=C(C)C(Br)=C(C)C was tested, and the T/C (dose: 100.0 mg/kg/injection, schedule: Q01DX001 (ip), vehicle: DMSO) was 96 % of control.
For FC(F)(F)c1nc[nH]c1C(F)(F)F, the T/C (dose: 6.25 mg/kg/injection, schedule: Q01DX009 (ip), vehicle: water) was 103 % of control, the T/C (dose: 12.5 mg/kg/injection, schedule: Q01DX009 (ip), vehicle: water) was 97 % of control and the T/C [15] was 97 % of control.
CC(C)(C)C1=CC(=O)C(N=[N+]=[N-])=CC1=O was tested, and the T/C (dose: 100.0 mg/kg/injection, schedule: Q04DX002 (ip), vehicle: saline) was 94 % of control and the T/C (dose: 200.0 mg/kg/injection, schedule: Q04DX002 (ip), vehicle: saline) was 115 % of control.
In the case of Cc1ccc(NCC(=O)NN)cc1, the T/C [9] is reported as 104 % of control and the T/C [10] is reported as 107 % of control.
In the case of CCCCCCCCCCCCSC(=O)NCCC, the T/C (dose: 100.0 mg/kg/injection, schedule: Q01DX009 (ip), vehicle: other) is reported as 95 % of control, the T/C (dose: 200.0 mg/kg/injection, schedule: Q01DX009 (ip), vehicle: other) is reported as 90 % of control and the T/C (dose: 400.0 mg/kg/injection, schedule: Q01DX009 (ip), vehicle: other) is reported as 92 % of control.
